2 molecules from US6323186A, “Phosphate-bound polyazaindacene derivatives of nucleotides” (Molecular Probes, Inc., priority 2000, dated 2001) can be followed below.

The nature of the data set: Relative quantum yield determination for labeled nucleotides. The class given is physicochemical. The source says:
[…] The concentration of this solution is matched with that of a solution of Compound 2 in the same solvent by matching the optical density (OD) at the absorption wavelength maximum, which is 504 nm for both samples.

Where [1] appears, read: in methanol, relative to reference fluorophore.
Where [2] appears, read: pH 9 phosphate buffer, OD matched at absorption maximum, excited at λmax, reference 4,4-difluoro-5,7-dimethyl-4-bora-3a,4a-diaza-s-indacene-3-propionic acid.
The mark [3] stands for this setting: pH 9 phosphate buffer, relative to reference fluorophore.

On to `Cc1cc(C)n2c1C=C1C=CC(CNC(=O)CSP(=O)(O)OP(=O)(O)OP(=O)(O)OC[C@H]3O[C@@H](n4cnc5c(=O)[nH]c(N)nc54)[C@H](O)[C@@H]3O)=[N+]1[B-]2(F)F` [Compound 2], for which the fluorescence quenched is, setting by setting: under setting [1], 41%; under setting [3], 89%. In addition, the “fluorescence yield relative to reference fluorophore” value is recorded as 59% under setting [1] and 11% under setting [2].
Take `Nc1nc2c(ncn2[C@@H]2O[C@H](COP(=O)(O)OP(=O)(O)OP(=O)(O)SCC(=O)NCCCCCNC(=O)COc3ccc(C4=[N+]5C(=Cc6ccc(-c7cccs7)n6[B-]5(F)F)C=C4)cc3)[C@@H](O)[C@H]2O)c(=O)[nH]1` [Compound 4]: the fluorescence quenched runs as follows: under setting [1], 25%; under setting [3], 90.9%. The “fluorescence yield relative to reference fluorophore” value under setting [1] is 75% and the “fluorescence yield relative to reference fluorophore” value under setting [2] was 9.1%.
